Read-outs that look alike come from different tables or passages of the source.
What was measured:
Assay in all cases: Determination of MIC values (BHI broth, 96 well microtiter plate)
Format in all cases: cell-based
Streptococcus pneumoniae = conditions: BHI broth; for MIC: Streptococcus pneumoniae, read-out: MIC S. pneu
How it was run: (§1)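 Organisms are grown in BHI at 37° C (about 7% CO2) to a 0.5 McFarland standard, then inoculated at 10^5 to 10^6 cells/mL into BHI holding twofold compound dilutions (final 25 down to 0.39 µg/mL, DMSO-diluted). After overnight incubation, MIC is the lowest concentration lacking growth.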

[1] = system: vancomycin-resistant Enterococcus spp. (VRE); conditions: for MIC: Enterococcus, VRE, read-out: MIC VREF
How it was run: as §1

[2] = system: methicillin-resistant Staphylococcus aureus (MRSA); conditions: for MIC: Staphylococcus aureus, MRSA, read-out: MIC MRSA
How it was run: as §1

[3] = 16 h, BHI broth, 37° C., about 16 hours
[4] = VREF, BHI broth, overnight 37° C.
[5] = BHI broth, 37° C., about 16 hours
[6] = 37° C., overnight (about 16 hours)
[7] = 16 h, BHI broth, 37° C., overnight (about 16 hours)

Structure (SMILES)	MIC (Streptococcus pneumoniae; S. pneu, overnight 37° C.) [µg/mL]	MIC [1, 4] [µg/mL]	MIC ([2]; BHI broth, overnight 37° C.) [µg/mL]	also measured
COc1ccc2nc(-c3c(C)[nH]c4ccc(OC)cc34)ccc2c1 [Example 428]	–	–	–	MIC (Streptococcus pneumoniae; 37° C., about 16 hours): > 25 µg/mL; MIC [1, 3]: > 25 µg/mL; MIC [2, 3]: > 25 µg/mL
NCc1ccc(CNC(=O)c2cc(-c3c[nH]c4ccc(Br)cc34)nc3cc(C#CCN4CCSCC4)ccc23)cc1 [Example 270]	> 25	< 25	< 25	–
CC(=O)Oc1cccc2[nH]cc(-c3ccc4cc(Cl)ccc4n3)c12 [Example 204]	< 7	< 25	< 7	–
OCc1cc(-c2c[nH]c3ccc(Br)cc23)nc2cc(Cl)ccc12 [Example 492]	–	–	–	MIC S. pneu (Streptococcus pneumoniae; 37° C., about 16 hours): < 7 µg/mL; MIC VREF [1, 5]: <25 µg/mL; MIC MRSA [2, 5]: < 7 µg/mL
NCCNC(=O)c1cc(-c2c[nH]c3ccc(Br)cc23)nc2ccc(Br)cc12 [Example 285]	< 7	< 7	< 7	–
Cn1cc(-c2ccc3cc(Cl)ccc3n2)c2ccc(Cl)cc21 [Example 219]	< 25	> 25	> 25	–
O=C(c1cc(-c2c[nH]c3ccc(Br)cc23)nc2ccc(Cl)cc12)N1CCNCC1 [Example 136]	–	–	–	MIC (Streptococcus pneumoniae; [6]): < 7 µg/mL; MIC [1, 7]: < 7 µg/mL; MIC [2, 7]: < 7 µg/mL
NCc1cccc(CNC(=O)c2cc(-c3c[nH]c4ccc(Br)cc34)nc3cc(Br)ccc23)n1 [Example 334]	< 7	< 7	< 7	–
Cn1cc(-c2cc(C(=O)NCc3ccc(CN)cc3)c3cc(C#CCN4CC=CC4)ccc3n2)c2cc(Br)ccc21 [Example 396]	> 25	> 25	> 25	–
NCC1CCC(CNC(=O)c2cc(-c3c[nH]c4ccc(Br)cc34)nc3c(Cl)c(Cl)ccc23)CC1 (stereo not shown) [Example 277]	< 7	< 7	< 7	–
NCC1CCCC(CNC(=O)c2cc(-c3c[nH]c4ccc(Br)cc34)nc3cc(Cl)cc(Cl)c23)C1 (stereo not shown) [Example 248]	< 7	< 7	< 7	–
NCC1CCC(CNC(=O)c2cc(-c3c[nH]c4ccc(Br)cc34)nc3ccc(Cl)cc23)CC1 (stereo not shown) [Example 133]	–	–	–	MIC (Streptococcus pneumoniae; [6]): < 7 µg/mL; MIC [1, 7]: < 7 µg/mL; MIC [2, 7]: < 7 µg/mL
NCc1ccc(CNC(=O)c2cc(-c3c[nH]c4ccc(Br)cc34)nc3cc(C#CCNCCc4ccc(Cl)cc4)ccc23)cc1 [Example 300]	< 25	< 7	< 7	–
Cn1cc(-c2ccc3cc(Cl)ccc3n2)c2cc(O)ccc21 [Example 221]	< 7	< 7	< 7	–
Cc1ccc2[nH]cc(-c3ccc4cccc(C)c4n3)c2c1 [Example 411]	–	–	–	MIC (Streptococcus pneumoniae; 37° C., about 16 hours): > 25 µg/mL; MIC [1, 3]: > 25 µg/mL; MIC [2, 3]: > 25 µg/mL
NCc1ccc(CNC(=O)c2cc(-c3c[nH]c4ccc(Br)cc34)c3ccccc3n2)cc1 [Example 306]	< 7	< 7	< 7	–
Cn1cc(-c2cc(C(=O)NCc3ccc(CN)cc3)c3cc(Cl)ccc3n2)c2cc(Br)ccc21 [Example 365]	< 7	< 7	< 7	–
O=[N+]([O-])c1cccc2nc(-c3c[nH]c4ccc(Cl)cc34)ccc12 [Example 385]	> 25	> 25	> 25	–
OCc1cc(-c2c[nH]c3ccc(Br)cc23)nc2c(Br)cccc12 [Example 458]	–	–	–	MIC (Streptococcus pneumoniae; 37° C., about 16 hours): < 7 µg/mL; MIC [1, 3]: < 7 µg/mL; MIC [2, 3]: < 7 µg/mL
NCc1ccc(CNC(=O)c2cc(-c3c[nH]c4ccc(Br)cc34)nc3ccc(C#CCNCCc4ccc(Cl)cc4)cc23)cc1 [Example 235]	< 7	< 7	< 7	–
CN(C)CCNCC#Cc1ccc2nc(-c3cn(C)c4ccc(Br)cc34)cc(C(=O)NCCN)c2c1 [Example 402]	–	–	–	MIC (Streptococcus pneumoniae; 37° C., about 16 hours): < 7 µg/mL; MIC [1, 3]: < 7 µg/mL; MIC [2, 3]: < 7 µg/mL
NCC1CCCC(CNC(=O)c2cc(-c3c[nH]c4ccc(Br)cc34)nc3c(Cl)c(Cl)ccc23)C1 (stereo not shown) [Example 278]	< 7	< 7	< 7	–

Structure (SMILES)	MIC (Streptococcus pneumoniae; S. pneu, overnight 37° C.) [µg/mL]	MIC [1, 4] [µg/mL]	MIC ([2]; BHI broth, overnight 37° C.) [µg/mL]	also measured
CC(C)N(CC#Cc1ccc2nc(-c3cn(C)c4ccc(Br)cc34)cc(C(=O)NCCN)c2c1)C(C)C [Example 408]	–	–	–	MIC (Streptococcus pneumoniae; 37° C., about 16 hours): < 7 µg/mL; MIC [1, 3]: < 7 µg/mL; MIC [2, 3]: < 7 µg/mL
OCc1cc(-c2c[nH]c3ccc(Br)cc23)nc2ccc(Br)cc12 [Example 445]	–	–	–	MIC (Streptococcus pneumoniae; 37° C., about 16 hours): < 7 µg/mL; MIC [1, 3]: < 7 µg/mL; MIC [2, 3]: < 7 µg/mL
Cn1cc(-c2cc(C(=O)NC3CCC(N)CC3)c3ccc(I)cc3n2)c2cc(Br)ccc21 (stereo not shown) [Example 333]	< 7	< 7	< 7	–
Clc1cc(-c2c[nH]c3c(Cl)cccc23)nc2ccccc12 [Example 344]	< 7	> 25	< 7	–
NC1CCCCC1NC(=O)c1cc(-c2c[nH]c3ccc(Br)cc23)nc2ccc(I)cc12 (stereo not shown) [Example 112]	–	–	–	MIC (Streptococcus pneumoniae; [6]): < 7 µg/mL; MIC [1, 7]: < 7 µg/mL; MIC [2, 7]: < 7 µg/mL
Cc1cccc2c(-c3cc(Cl)c4ccc(Cl)cc4n3)c[nH]c12 [Example 476]	–	–	–	MIC (Streptococcus pneumoniae; 37° C., about 16 hours): < 25 µg/mL; MIC [1, 3]: > 25 µg/mL; MIC [2, 3]: > 25 µg/mL
Fc1cccc2[nH]cc(-c3cc(Cl)c4ccccc4n3)c12 [Example 338]	< 7	> 25	< 25	–
Cn1cc(-c2cc(C(=O)NCC3CCC(CN)CC3)c3cc(I)ccc3n2)c2cc(Br)ccc21 (stereo not shown) [Example 357]	< 7	< 7	< 7	–
NCc1cccc(CNC(=O)c2cc(-c3c[nH]c4ccc(Br)cc34)nc3ccc(I)cc23)c1 [Example 116]	–	–	–	MIC (Streptococcus pneumoniae; [6]): < 7 µg/mL; MIC [1, 7]: < 7 µg/mL; MIC [2, 7]: < 7 µg/mL
NCC1CCC(CNC(=O)c2cc(-c3c[nH]c4ccc(Cl)cc34)nc3ccc(I)cc23)CC1 (stereo not shown) [Example 226]	< 7	< 25	< 25	–
Clc1ccc2nc(-c3c[nH]c4c(Cl)cccc34)ccc2c1 [Example 354]	> 25	> 25	> 25	–
OCc1cc(-c2c[nH]c3ccc(Br)cc23)nc2ccccc12 [Example 442]	–	–	–	MIC (Streptococcus pneumoniae; 37° C., about 16 hours): < 7 µg/mL; MIC [1, 3]: < 25 µg/mL; MIC [2, 3]: < 7 µg/mL
Cn1cc(-c2cc(C(=O)NCc3ccc(CN)cc3)c3cc(I)ccc3n2)c2cc(Br)ccc21 [Example 299]	< 7	–	–	–
Cc1cccc2ccc(-c3c[nH]c4c(C)cccc34)nc12 [Example 471]	–	–	–	MIC (Streptococcus pneumoniae; 37° C., about 16 hours): < 7 µg/mL; MIC [1, 3]: > 25 µg/mL
COC(=O)C(=O)N1CCN(C(=O)c2cc(-c3c[nH]c4ccc(Br)cc34)nc3ccccc23)CC1 [Example 29]	–	–	–	MIC [1, 7]: < 25 µg/mL; MIC [2, 7]: < 25 µg/mL
O=C(NC1CN2CCC1CC2)c1cc(-c2c[nH]c3ccc(Br)cc23)nc2ccccc12 (stereo not shown) [Example 35]	–	–	–	MIC ([1]; 16 h): > 25 µg/mL; MIC ([2]; 16 h): < 25 µg/mL
NCc1cccc(CNC(=O)c2cc(-c3ccsc3)nc3ccc(Br)cc23)c1 [Example 166]	–	–	–	MIC [1, 7]: > 25 µg/mL; MIC [2, 7]: > 25 µg/mL
O=C(Nc1ccc(Cl)c(C(F)(F)F)c1)N1CCN(C(=O)c2cc(-c3c[nH]c4ccc(Br)cc34)nc3ccccc23)CC1 [Example 67]	–	–	–	MIC [1, 7]: < 7 µg/mL; MIC [2, 7]: < 7 µg/mL
CN1CCN(C(=O)c2cc(-c3c[nH]c4ccc(Br)cc34)nc3ccccc23)CC1 [Example 30]	–	–	–	MIC [1, 7]: > 25 µg/mL; MIC [2, 7]: < 25 µg/mL
NCCNC(=O)c1cc(-c2c[nH]c3ccc(Br)cc23)nc2ccccc12 [compound 2]	–	–	–	MIC [1, 7]: < 25 µg/mL; MIC [2, 7]: < 25 µg/mL
COc1cc2nc(-c3c[nH]c4ccc(Br)cc34)cc(C(=O)NCc3ccc(CN)cc3)c2cc1OC [Example 98]	–	–	–	MIC [1, 7]: < 25 µg/mL; MIC [2, 7]: < 25 µg/mL
CN(CC#Cc1ccc2c(C(=O)NCc3ccc(CN)cc3)cc(-c3c[nH]c4ccc(Br)cc34)nc2c1)C1CCCCC1 [Example 264]	–	< 25	< 7	–

From patent publication US6376670B1, “Quinoline-indole antimicrobial agents, uses and compositions related thereto” (Sepracor Inc., priority 1997, dated 2002)
